For O=C(O)c1cccc(-c2cccc(CC(=O)N(Cc3ccccc3)[C@@H]3c4ccccc4CC[C@H]3Cc3ccccc3)c2)c1 (relative stereo) [Example 1, trans-3′-{[Benzyl-(2-benzyl-1,2,3,4-tetrahydro-naphthalen-1-yl)-carbamoyl]-methyl}-biphenyl-3-carboxylic acid], which melting point is on record?
Its melting point is 171 to 172 °C.
